{"source": "patent US20240279711A1", "about": "“MARKER FOR DNA DAMAGE IN PROXIMITY OF TRANSCRIBED GENOMIC LOCI AND METHODS FOR IDENTIFYING AND/OR QUANTIFYING THESE DNA DAMAGES” (FONDAZIONE ISTITUTO ITALIANO DI TECNOLOGIA, priority 2021, published 2024)", "assay_type_in_all_cases": "cell-based", "key": {"[1]": {"tested_on": "mCherry-CDK12 recruitment at damaged DNA sites in U2OS cells", "test": "Laser micro-irradiation, time-lapse microscopy of mCherry-CDK12 recruitment to damaged DNA sites", "conditions": "for recruitment of mCherry-CDK12 at laser-damaged areas: 3 hours before laser micro-irradiation; for localisation of CDK12 at laser-damaged DNA sites: 1 hour before laser microirradiation; for localisation of CDK12 at laser-damaged sites: 2 hours before laser microirradiation", "experimental": "FIGS. 6A and 6B show how the recruitment of CDK12 to DDR sites is transcription-dependent. U2OS cells, transfected with mCherry-CDK12 plasmid, were first treated with DRB (100 uM), Triptolide (1 uM) or DMSO (mock) for 3 hours and then micro-irradiated by laser. Selected regions within the nucleus were micro-irradiated with 10 iterations of a laser at 405 nm with 100% power. The cells were subjected to quantitative analysis using time-lapse microscopy.\nU2OS cells were transfected with the mCherry-CDK12 encoding plasmid and treated with THZ531 (100 nM) or DMSO for 24 hours. The cells were previously treated with BrdU for 24 hours to sensitise the DNA to breaks by laser. To generate localised DNA damage, selected regions within the nucleus were micro-irradiated with 10 iterations of a laser at 405 nm with 100% power. The cells were then subjected to time-lapse microscopic analysis. For each condition, at least 30 cells were considered. FIG. 9A reports representative images used for the analysis shown in the graph of FIG. 9B.\nU2OS cells were transfected with mCherry-CDK12 plasmid and pre-treated with KU-55933 (ATMi; 10 μM), VE-821 (ATRi; 10 µM) or DMSO (mock) for 2 hours prior to laser microirradiation. To generate localised DNA damage, selected regions within the nucleus were micro-irradiated with 10 iterations of a laser at 405 nm with 100% power. The cells were subjected to quantitative analysis by time-lapse microscopy. FIG. 10A: representative images used for the analysis shown in the graph in FIG. 10B.\nFIGS. 11A and 11B show how CDK12 recruitment to DDR sites depends on PARP1 activity. U2OS cells were transfected with mCherry-CDK12 plasmid and pre-treated with Olaparib (1 µM), Veliparib (10 μM) or DMSO (mock) for 1 hour before laser microirradiation. To generate localised DNA damage, selected regions within the nucleus were micro-irradiated with 10 iterations of a laser at 405 nm with 100% power. The cells were then subjected to quantitative analysis by time-lapse microscopy.\nU2OS cells were transfected with a vector encoding mCherry-CDK12. Cells were micro-irradiated with a laser beam to induce DNA breaks confined to appropriately selected nuclear areas.\nIn order to inhibit RNA-pol2, the cells were pre-treated with either (i) triptolide (a TFIIH inhibitor that blocks the start of transcriptional) or (ii) DRB (5,6-dichlorobenzimidazole riboside, a DSIF inhibitor that prevents transcriptional elongation).\nU2OS cells were transfected with a vector encoding for mCherry-CDK12. Cells were micro-irradiated with a laser beam to induce DNA breaks confined to selected nuclear areas. In order to inhibit CDK12, the cells were pre-treated with THZ531, a covalent inhibitor of CDK12.\nU2OS cells were transfected with a vector encoding for mCherry-CDK12. The cells were micro-irradiated with a laser beam to induce DNA breaks in selected nuclear areas. To inhibit the DDR response, the cells were pre-treated with an ATM inhibitor (KU-55933) or an ATR inhibitor (VE-821).\nU2OS cells, transfected with a vector encoding for mCherry-CDK12, were micro-irradiated with a laser beam to induce DNA breaks confined to selected nuclear areas. To inhibit PARP1, the cells were pre-treated with Olaparib and Veliparib."}, "[2]": {"tested_on": "mCherry-CDK12 recruitment to programmed DSBs in U2OS-TRE-I-Sce1 cells", "test": "CDK12 recruitment to programmed Sce-1 DSB, co-localisation with γH2A.X", "conditions": "U2OS-TRE-I-SceI cells, doxycycline, 3 hours", "experimental": "FIGS. 7A and 7B show how CDK12 recruitment at a DNA-damaged locus is transcriptionally dependent. U2OS-TRE-I-SceI cells were transfected with plasmid vectors encoding mCherry-CDK12, p-rtTA, YFP-MS2 or I-Sce1. The cells were treated with doxycycline, which is required for the induction of the rtTA transcription factor that activates the transcription of the MS2 reporter gene. RNA-pol2 activity was inhibited by DRB (100 uM) or TRIPTOLIDE (TPL, 1 uM) for 3 hours. The cells were fixed with 4% PFA for 15 minutes and immunostained for γH2A. X. The table in FIG. 7B reports the percentage of cells showing co-localisation between CDK12 and γH2A. X (mean of two experiments).\nU2OS-TRE-I-Sce-1 cells were transfected with plasmids encoding (i) YFP-MS2 (a chimeric gene produced by the MS2 CDNA fused with the YFP cDNA), (ii) mCherry-CDK12 (a chimeric fusion of mCherry and CDK12), (iii) rtTA (a doxycycline-activated transcription factor) and (iv) the restriction enzyme Sce-1. Transcription was activated by the addition of doxycycline and monitored by detecting subcellular positive nuclear foci for YFP signal. Sce-1-induced DSBs were visualised by immunofluorescence staining specific for the phosphorylated form of histone H2Ax (γH2A. X), a marker for DNA break detection and DNA damage response (DDR) signalling pathway activation. […]"}, "[3]": {"tested_on": "mCherry-CDK12 recruitment at endogenous DDR sites in RPE-iCUT cells", "test": "CDK12 recruitment to CRISPR-Cas9 induced DSBs at endogenous loci", "conditions": "DSBs 1 kb and 2 kb upstream of TSS of POLRIB, IFRD2, MCM2, DRB 100 uM, 3 hours before harvesting", "experimental": "RPE iCUT cells, stably expressing inducible CRISPER-Cas9, were transfected with mCherry-CDK12. Cas9 was activated by doxycycline and SHIELD-1 for 16 hours. […] 3 hours before harvesting, the cells were treated with DRB (100 uM). The bar graph reports the percentage of cells showing co-localisation of CDK12 and γH2A. X in the indicated genomic regions (mean of two independent experiments, 40 cells were considered for each region).\nFor the site-specific induction of a DSB at selected endogenous genomic loci, we used RPE-iCUT cells: immortalised retinal epithelial cells engineered for CRISPR-CAS9 expression and conditional activation. These cells were transfected with mCherry-CDK12 and a set of sgRNAs (Alt-R-gRNA) designed to induce DBS in three expressed genes (MCM2, IFRD2 and POLRIB), in two regions upstream of their site of transcriptional onset (TSS), or designed to induce DSB in two genomic regions distal to transcribed loci. The induction of DSBs by CRISPR-Cas9 was assessed by immunofluorescence of γH2A. X, while the recruitment of CDK12 to DNA-damaged sites was assessed by microscopy analysis of mCherry signals. […] As a control, DSBs induced in regions distal to transcribed loci show low levels of CDK12 recruitment (close to the background signal), which are not altered by RNA-pol2 inhibitors (FIG. 8)."}, "[4]": {"tested_on": "MS2 reporter transcription in U2OS-TRE-I-Sce1 cells", "test": "MS2 reporter gene transcription at damaged locus (YFP-MS2 / pCherry-tTA-ER co-localisation)", "conditions": "+SceI, OHT, THZ531 for 24 h", "from_the_text": "The fixed cells were processed to detect the γH2A. X signal by immunofluorescence. […] U2OS-TRE-I-Sce1 cells were transfected with plasmids encoding (i) YFP-MS2 (a chimeric gene produced from MS2 cDNA fused with YFP cDNA), (ii) mCherry-tTA-ER and (iii) the restriction enzyme Sce-1. Transcription was activated by addition of OHT and monitored by detecting positive nuclear foci for YFP signal. Sce1-induced DSBs were visualised by immunofluorescence staining of the phosphorylated form of the histone H2Ax (γH2A. X), a marker for DNA break detection and DNA damage response (DDR) signalling pathway activation."}}, "data": [{"smiles": "CC(C)[C@]12O[C@H]1[C@@H]1O[C@]13[C@]1(O[C@H]1C[C@H]1C4=C(CC[C@@]13C)C(=O)OC4)[C@@H]2O", "note": "[triptolide]", "values": [{"measurement": "recruitment of mCherry-CDK12 at laser-damaged areas", "setting": "[1]; Triptolide 1 uM", "result": "prevents the recruitment of mCherry-CDK12 at damaged areas"}, {"measurement": "recruitment of mCherry-CDK12 at Sce-1 damaged locus", "setting": "[2]; TRIPTOLIDE 1 uM", "result": "prevents the recruitment of mCherry-CDK12 at damaged areas"}]}, {"smiles": "OC[C@H]1O[C@@H](n2cnc3cc(Cl)c(Cl)cc32)[C@H](O)[C@@H]1O", "note": "[DRB, 5,6-dichlorobenzimidazole riboside]", "values": [{"measurement": "CDK12 recruitment to DDR foci proximal to promoters", "setting": "[3]", "result": "reduced its recruitment to damaged foci"}, {"measurement": "recruitment of mCherry-CDK12 at laser-damaged areas", "setting": "[1]; DRB 100 uM", "result": "prevents the recruitment of mCherry-CDK12 at damaged areas"}, {"measurement": "recruitment of mCherry-CDK12 at Sce-1 damaged locus", "setting": "[2]; DRB 100 uM", "result": "prevents the recruitment of mCherry-CDK12 at damaged areas"}]}, {"smiles": "O=C(c1cc(Cc2n[nH]c(=O)c3ccccc23)ccc1F)N1CCN(C(=O)C2CC2)CC1", "note": "[Olaparib]", "values": [{"measurement": "localisation of CDK12 at laser-damaged DNA sites", "setting": "[1]; Olaparib 1 µM", "result": "inhibited the localisation of CDK12 at damaged DNA sites"}]}, {"smiles": "CN(C)C/C=C/C(=O)Nc1ccc(C(=O)N2CCC[C@@H](Nc3ncc(Cl)c(-c4c[nH]c5ccccc45)n3)C2)cc1", "note": "[THZ531]", "values": [{"measurement": "MS2 reporter expression at damaged locus", "setting": "[4]", "result": "reactivated MS2 reporter expression"}, {"measurement": "recruitment of CDK12 at DDR foci (laser)", "setting": "[1]; THZ531 100 nM, 24 hours, BrdU pre-sensitised", "result": "did not affect the recruitment of CDK12 at DDR foci"}]}, {"smiles": "C[C@]1(c2nc3c(C(N)=O)cccc3[nH]2)CCCN1", "note": "[Veliparib]", "values": [{"measurement": "localisation of CDK12 at laser-damaged DNA sites", "setting": "[1]; Veliparib 10 μM", "result": "inhibited the localisation of CDK12 at damaged DNA sites"}]}, {"smiles": "O=c1cc(-c2cccc3c2Sc2ccccc2S3)oc(N2CCOCC2)c1", "note": "[KU-55933]", "values": [{"measurement": "localisation of CDK12 at laser-damaged sites", "setting": "[1]; KU-55933 (ATMi) 10 μM", "result": "Neither of the two inhibitor affected the localisation of CDK12 at the damaged sites"}]}, {"smiles": "CS(=O)(=O)c1ccc(-c2cnc(N)c(C(=O)Nc3ccccc3)n2)cc1", "note": "[VE-821]", "values": [{"measurement": "localisation of CDK12 at laser-damaged sites", "setting": "[1]; VE-821 (ATRi) 10 µM", "result": "Neither of the two inhibitor affected the localisation of CDK12 at the damaged sites"}]}]}
